Results: ChEMBL document CHEMBL3751826, “Sulfamide derivatives with selective carbonic anhydrase VII inhibitory action” (Bioorg Med Chem, 2016)

What was measured:
[1] = molecular target: Carbonic anhydrase 2 (Homo sapiens, UniProt P00918)
Description: Inhibition of recombinant human carbonic anhydrase 2 preincubated for 15 mins by stopped-flow CO2 hydration assay

[2] = molecular target: Carbonic anhydrase 9 (Homo sapiens, UniProt Q16790)
Description: Inhibition of recombinant human carbonic anhydrase 9 preincubated for 15 mins by stopped-flow CO2 hydration assay

[3] = molecular target: Carbonic anhydrase 7 (Homo sapiens, UniProt P43166)
Description: Inhibition of recombinant human carbonic anhydrase 7 preincubated for 15 mins by stopped-flow CO2 hydration assay

[4] = molecular target: Carbonic anhydrase 14 (Homo sapiens, UniProt Q9ULX7)
Description: Inhibition of recombinant human carbonic anhydrase 14 preincubated for 15 mins by stopped-flow CO2 hydration assay

[5] = molecular target: Carbonic anhydrase 12 (Homo sapiens, UniProt O43570)
Description: Inhibition of recombinant human carbonic anhydrase 12 preincubated for 15 mins by stopped-flow CO2 hydration assay

[6] = molecular target: Carbonic anhydrase 1 (Homo sapiens, UniProt P00915)
Chain of Carbonic anhydrase 1 (P00915 whole entry): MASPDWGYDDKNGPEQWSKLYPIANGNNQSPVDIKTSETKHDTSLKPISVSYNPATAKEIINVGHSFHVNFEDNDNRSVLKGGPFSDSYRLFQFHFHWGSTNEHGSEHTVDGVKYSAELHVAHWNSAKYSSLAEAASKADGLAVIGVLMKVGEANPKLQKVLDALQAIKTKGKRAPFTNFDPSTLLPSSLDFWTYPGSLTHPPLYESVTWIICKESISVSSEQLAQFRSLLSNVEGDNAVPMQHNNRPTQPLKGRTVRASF
Description: Inhibition of recombinant human carbonic anhydrase 1 preincubated for 15 mins by stopped-flow CO2 hydration assay

Chain of Carbonic anhydrase 14 (Q9ULX7 whole entry): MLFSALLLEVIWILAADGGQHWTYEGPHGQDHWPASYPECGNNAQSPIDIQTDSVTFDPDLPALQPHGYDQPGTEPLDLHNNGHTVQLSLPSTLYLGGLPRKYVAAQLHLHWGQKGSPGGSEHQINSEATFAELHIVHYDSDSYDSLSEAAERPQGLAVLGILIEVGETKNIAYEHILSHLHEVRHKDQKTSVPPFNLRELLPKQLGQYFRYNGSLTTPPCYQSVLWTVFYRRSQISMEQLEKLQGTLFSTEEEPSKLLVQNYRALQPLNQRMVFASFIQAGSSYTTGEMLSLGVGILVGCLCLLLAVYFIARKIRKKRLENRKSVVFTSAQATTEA
Chain of Carbonic anhydrase 7 (P43166 whole entry): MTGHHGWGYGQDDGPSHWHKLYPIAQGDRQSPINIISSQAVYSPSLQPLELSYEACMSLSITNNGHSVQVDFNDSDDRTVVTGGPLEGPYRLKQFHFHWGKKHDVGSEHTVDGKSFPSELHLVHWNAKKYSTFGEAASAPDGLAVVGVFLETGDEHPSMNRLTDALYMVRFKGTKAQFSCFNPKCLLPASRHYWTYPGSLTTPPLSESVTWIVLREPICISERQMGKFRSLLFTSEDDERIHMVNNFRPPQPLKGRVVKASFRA
Chain of Carbonic anhydrase 12 (O43570 whole entry): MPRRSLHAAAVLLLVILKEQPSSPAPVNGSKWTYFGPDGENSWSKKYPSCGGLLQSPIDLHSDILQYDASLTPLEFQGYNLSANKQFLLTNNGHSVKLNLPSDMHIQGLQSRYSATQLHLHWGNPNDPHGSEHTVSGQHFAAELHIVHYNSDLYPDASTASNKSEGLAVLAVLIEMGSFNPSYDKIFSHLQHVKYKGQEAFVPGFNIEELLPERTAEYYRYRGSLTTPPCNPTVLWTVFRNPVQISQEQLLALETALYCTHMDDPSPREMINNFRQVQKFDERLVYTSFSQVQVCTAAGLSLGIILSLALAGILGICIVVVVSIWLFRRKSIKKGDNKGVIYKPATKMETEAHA

## COC(=O)[C@H](Cc1ccccc1)NS(=O)(=O)NCC(C)C
[1]
  Ki: 8530 nM
[2]
  Ki: 225 nM
[3]
  Ki: 0.37 nM
[4]
  Ki: 7.7 nM
[5]
  Ki: 6.8 nM
[6]
  Ki: > 10000 nM

## COC(=O)[C@@H](NS(=O)(=O)NCc1ccc(F)cc1)C(C)C
[1]
  Ki: > 10000 nM
[2]
  Ki: 25.7 nM
[3]
  Ki: 0.24 nM
[4]
  Ki: 7.4 nM
[5]
  Ki: 0.74 nM
[6]
  Ki: > 10000 nM

## COC(=O)CCNS(=O)(=O)NCc1ccc(F)cc1
[1]
  Ki: 8880 nM
[2]
  Ki: 29.3 nM
[3]
  Ki: 0.45 nM
[4]
  Ki: 22.7 nM
[5]
  Ki: 74.4 nM
[6]
  Ki: > 10000 nM

## COC(=O)[C@H](Cc1ccccc1)NS(=O)(=O)NCc1ccc(F)cc1
[1]
  Ki: > 10000 nM
[2]
  Ki: 28.1 nM
[3]
  Ki: 0.28 nM
[4]
  Ki: 6.5 nM
[5]
  Ki: 0.66 nM
[6]
  Ki: > 10000 nM

## COC(=O)CCNS(=O)(=O)NCCc1ccccc1
[1]
  Ki: > 10000 nM
[2]
  Ki: 26.5 nM
[3]
  Ki: 2.2 nM
[4]
  Ki: 7.3 nM
[5]
  Ki: 64.2 nM
[6]
  Ki: > 10000 nM

## COC(=O)CCNS(=O)(=O)NCC(C)C
[1]
  Ki: > 10000 nM
[2]
  Ki: 31.8 nM
[3]
  Ki: 0.27 nM
[4]
  Ki: 6.3 nM
[5]
  Ki: 4.7 nM
[6]
  Ki: > 10000 nM

## COC(=O)CCNS(=O)(=O)NC(C)c1ccccc1 (stereo unspecified)
[1]
  Ki: > 10000 nM
[2]
  Ki: 117 nM
[3]
  Ki: 0.31 nM
[4]
  Ki: 7.5 nM
[5]
  Ki: 5.2 nM
[6]
  Ki: > 10000 nM

## CCCCCCNS(=O)(=O)NCCC(=O)OC
[1]
  Ki: 7680 nM
[2]
  Ki: 96.7 nM
[3]
  Ki: 0.3 nM
[4]
  Ki: 6.1 nM
[5]
  Ki: 5 nM
[6]
  Ki: > 10000 nM

## COC(=O)[C@@H](NS(=O)(=O)NCC(C)C)C(C)C
[1]
  Ki: > 10000 nM
[2]
  Ki: 191 nM
[3]
  Ki: 0.39 nM
[4]
  Ki: 7.8 nM
[5]
  Ki: 33.7 nM
[6]
  Ki: > 10000 nM

## COC(=O)CCNS(=O)(=O)NC12CC3CC(CC(C3)C1)C2
[1]
  Ki: 4960 nM
[2]
  Ki: 30.5 nM
[3]
  Ki: 0.43 nM
[4]
  Ki: 8 nM
[5]
  Ki: 60.7 nM
[6]
  Ki: > 10000 nM

## O=S(=O)([O-])NC1CCCCC1.[Na+] [SODIUM CYCLAMATE]
[1]
  Ki: > 10000 nM
[2]
  Ki: 81.3 nM
[3]
  Ki: 0.24 nM
[4]
  Ki: 6.6 nM
[5]
  Ki: 3.8 nM
[6]
  Ki: > 10000 nM
